# Assay results reported in patent US20240425517A1, “NOVEL COMPOUND FOR DEGRADATION OF TARGET PROTEIN OR POLYPEPTIDE BY POLYUBIQUITINATION” (PRAZER THERAPEUTICS INC., priority 2021, published 2024).
# Molecular target: T1, BRD4 proteins (Homo sapiens, UniProt O60885)
# T1 construct: endogenous in cells; host or cells: MM.1S
# Assay: Degradation of BRD4 protein in MM.1S cell lines (Western blot densitometry)
# Format: cell-based
# Conditions: MM.1S cells, 10 μM, 24 hours
# Summary of the method: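 MM.1S cells in RPMI-1640 with 10% FBS were treated with each degrader at 10 μM for 24 h. RIPA lysates were analysed by SDS-PAGE/Western blot with β-actin as reference, and BRD4 band densitometry was scored as reduction <40% (+), 40-<70% (++) or ≥70% (+++).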
row,SMILES,BRD4 degrading capacity (%)
1,"Cc1sc2c(c1C)C(c1ccc(Cl)cc1)=N[C@@H](CC(=O)NCCCCC(=O)Nc1ccc(C#CCN)c(CO)c1)c1nnc(C)n1-2.Cl [5-9′, (S)—N-(4-(3-aminoprop-1-yn-1-yl)-3-(hydroxymethyl)phenyl)-5-(2-(4-(4-chlorophenyl)-2,3,9-trimethyl-6H-thieno[3,2-f][1,2,4]triazolo[4,3-a][1,4]diazepin-6-yl)acetamido)pentanamide hydrochloride]",++ (the degrading capacity was reduced by 40% to 70% (exclusive of 70))
2,"COC(=O)c1ccc(OCCCCNC(=O)C[C@@H]2N=C(c3ccc(Cl)cc3)c3c(sc(C)c3C)-n3c(C)nnc32)cc1C#CCN.Cl [5-12′, methyl (S)-2-(3-aminoprop-1-yn-1-yl)-4-(4-(2-(4-(4-chlorophenyl)-2,3,9-trimethyl-6H-thieno[3,2-f][1,2,4]triazolo[4,3-a][1,4]diazepin-6-yl)acetamido)butoxy)benzoate hydrochloride]",+++ (the degrading capacity was reduced by 70% or more)
3,"COC(=O)c1ccc(C(=O)NCCCNC(=O)C[C@@H]2N=C(c3ccc(Cl)cc3)c3c(sc(C)c3C)-n3c(C)nnc32)cc1C#CCN.Cl [5-18′, methyl (S)-2-(3-aminoprop-1-yn-1-yl)-4-((3-(2-(4-(4-chlorophenyl)-2,3,9-trimethyl-6H-thieno[3,2-f][1,2,4]triazolo[4,3-a][1,4]diazepin-6-yl)acetamido)propyl)carbamoyl)benzoate hydrochloride]",+++ (the degrading capacity was reduced by 70% or more)
4,"COC(=O)c1ccc(C(=O)NC2CCN(C(=O)C[C@@H]3N=C(c4ccc(Cl)cc4)c4c(sc(C)c4C)-n4c(C)nnc43)CC2)cc1C#CCN.Cl [5-22′, methyl (S)-2-(3-aminoprop-1-yn-1-yl)-4-((1-(2-(4-(4-chlorophenyl)-2,3,9-trimethyl-6H-thieno[3,2-f][1,2,4]triazolo[4,3-a][1,4]diazepin-6-yl)acetyl)piperidin-4-yl)carbamoyl)benzoate hydrochloride]",+++ (the degrading capacity was reduced by 70% or more)
5,"COC(=O)c1ccc(NC(=O)C2CCN(C(=O)C[C@@H]3N=C(c4ccc(Cl)cc4)c4c(sc(C)c4C)-n4c(C)nnc43)CC2)cc1C#CCN.Cl [5-23′, methyl (S)-2-(3-aminoprop-1-yn-1-yl)-4-(1-(2-(4-(4-chlorophenyl)-2,3,9-trimethyl-6H-thieno[3,2-f][1,2,4]triazolo[4,3-a][1,4]diazepin-6-yl)acetyl)piperidine-4-carboxamido)benzoate hydrochloride]",+++ (the degrading capacity was reduced by 70% or more)
6,"COC(=O)c1ccc(NC(=O)CCNC(=O)C2CCN(C(=O)C[C@@H]3N=C(c4ccc(Cl)cc4)c4c(sc(C)c4C)-n4c(C)nnc43)CC2)cc1C#CCN.Cl [5-25′, methyl (S)-2-(3-aminoprop-1-yn-1-yl)-4-(3-(1-(2-(4-(4-chlorophenyl)-2,3,9-trimethyl-6H-thieno[3,2-f][1,2,4]triazolo[4,3-a][1,4]diazepin-6-yl)acetyl)piperidine-4-carboxamido)propanamido)benzoate hydrochloride]",+++ (the degrading capacity was reduced by 70% or more)
7,"COC(=O)c1ccc(NC(=O)CCCNC(=O)C2CCN(C(=O)C[C@@H]3N=C(c4ccc(Cl)cc4)c4c(sc(C)c4C)-n4c(C)nnc43)CC2)cc1C#CCN.Cl [5-26′, methyl (S)-2-(3-aminoprop-1-yn-1-yl)-4-(4-(1-(2-(4-(4-chlorophenyl)-2,3,9-trimethyl-6H-thieno[3,2-f][1,2,4]triazolo[4,3-a][1,4]diazepin-6-yl)acetyl)piperidine-4-carboxamido)butanamido)benzoate hydrochloride]",++ (the degrading capacity was reduced by 40% to 70% (exclusive of 70))
8,"COC(=O)c1ccc(C(=O)NCCCNC(=O)C2CCN(C(=O)C[C@@H]3N=C(c4ccc(Cl)cc4)c4c(sc(C)c4C)-n4c(C)nnc43)CC2)cc1C#CCN.Cl [5-27′, methyl (S)-2-(3-aminoprop-1-yn-1-yl)-4-((3-(1-(2-(4-(4-chlorophenyl)-2,3,9-trimethyl-6H-thieno[3,2-f][1,2,4]triazolo[4,3-a][1,4]diazepin-6-yl)acetyl)piperidine-4-carboxamido)propyl)carbamoyl)benzoate hydrochloride]",++ (the degrading capacity was reduced by 40% to 70% (exclusive of 70))
9,"COC(=O)c1ccc(C#CCNC(=O)C2CCN(C(=O)C[C@@H]3N=C(c4ccc(Cl)cc4)c4c(sc(C)c4C)-n4c(C)nnc43)CC2)cc1C#CCN.Cl [5-28′, methyl (S)-2-(3-aminoprop-1-yn-1-yl)-4-(3-(1-(2-(4-(4-chlorophenyl)-2,3,9-trimethyl-6H-thieno[3,2-f][1,2,4]triazolo[4,3-a][1,4]diazepin-6-yl)acetyl)piperidine-4-carboxamido)prop-1-yn-1-yl)benzoate hydrochloride]",+++ (the degrading capacity was reduced by 70% or more)
10,"COC(=O)c1ccc(N2CCN(CC3CCN(C(=O)C[C@@H]4N=C(c5ccc(Cl)cc5)c5c(sc(C)c5C)-n5c(C)nnc54)CC3)CC2)cc1C#CCN.Cl [5-29′, methyl (S)-2-(3-aminoprop-1-yn-1-yl)-4-(4-((1-(2-(4-(4-chlorophenyl)-2,3,9-trimethyl-6H-thieno[3,2-f][1,2,4]triazolo[4,3-a][1,4]diazepin-6-yl)acetyl)piperidin-4-yl)methyl)piperazin-1-yl)benzoate hydrochloride]",+++ (the degrading capacity was reduced by 70% or more)
11,"COC(=O)c1ccc(N2CCN(C(=O)CCNC(=O)C[C@@H]3N=C(c4ccc(Cl)cc4)c4c(sc(C)c4C)-n4c(C)nnc43)CC2)cc1C#CCN.Cl [5-32′, methyl (S)-2-(3-aminoprop-1-yn-1-yl)-4-(4-(3-(2-(4-(4-chlorophenyl)-2,3,9-trimethyl-6H-thieno[3,2-f][1,2,4]triazolo[4,3-a][1,4]diazepin-6-yl)acetamido)propanoyl)piperazin-1-yl)benzoate hydrochloride]",+++ (the degrading capacity was reduced by 70% or more)
12,"COC(=O)c1cc(N2CCN(C(=O)CCNC(=O)C[C@@H]3N=C(c4ccc(Cl)cc4)c4c(sc(C)c4C)-n4c(C)nnc43)CC2)ccc1C#CCN.Cl [5-33′, methyl (S)-2-(3-aminoprop-1-yn-1-yl)-5-(4-(3-(2-(4-(4-chlorophenyl)-2,3,9-trimethyl-6H-thieno[3,2-f][1,2,4]triazolo[4,3-a][1,4]diazepin-6-yl)acetamido)propanoyl)piperazin-1-yl)benzoate hydrochloride]",++ (the degrading capacity was reduced by 40% to 70% (exclusive of 70))
13,"COC(=O)c1ccc(NC2CCC(NC(=O)C[C@@H]3N=C(c4ccc(Cl)cc4)c4c(sc(C)c4C)-n4c(C)nnc43)CC2)cc1C#CCN (stereo partly drawn) [5-35′, methyl (S)-2-(3-aminoprop-1-yn-1-yl)-4-((4-(2-(4-(4-chlorophenyl)-2,3,9-trimethyl-6H-thieno[3,2-f][1,2,4]triazolo[4,3-a][1,4]diazepin-6-yl)acetamido)cyclohexyl)amino)benzoate trifluoroacetic acid]",+++ (the degrading capacity was reduced by 70% or more)
14,"COC(=O)c1ccc(C(=O)N2CCC3(CC2)CN(C(=O)C[C@@H]2N=C(c4ccc(Cl)cc4)c4c(sc(C)c4C)-n4c(C)nnc42)C3)cc1C#CCN [5-39′, methyl (S)-2-(3-aminoprop-1-yn-1-yl)-4-(2-(2-(4-(4-chlorophenyl)-2,3,9-trimethyl-6H-thieno[3,2-f][1,2,4]triazolo[4,3-a][1,4]diazepin-6-yl)acetyl)-2,7-diazaspiro[3.5]nonane-7-carbonyl)benzoate trifluoroacetic acid]",++ (the degrading capacity was reduced by 40% to 70% (exclusive of 70))
15,"COC(=O)c1ccc(N2CC3(CN(C(=O)C[C@@H]4N=C(c5ccc(Cl)cc5)c5c(sc(C)c5C)-n5c(C)nnc54)C3)C2)cc1C#CCN [5-40′, methyl (S)-2-(3-aminoprop-1-yn-1-yl)-4-(6-(2-(4-(4-chlorophenyl)-2,3,9-trimethyl-6H-thieno[3,2-f][1,2,4]triazolo[4,3-a][1,4]diazepin-6-yl)acetyl)-2,6-diazaspiro[3.3]heptan-2-yl)benzoate trifluoroacetic acid]",+++ (the degrading capacity was reduced by 70% or more)
16,"COC(=O)c1ccc(C(=O)N2CC3(CN(C(=O)C[C@@H]4N=C(c5ccc(Cl)cc5)c5c(sc(C)c5C)-n5c(C)nnc54)C3)C2)cc1C#CCN [5-41′, methyl (S)-2-(3-aminoprop-1-yn-1-yl)-4-(6-(2-(4-(4-chlorophenyl)-2,3,9-trimethyl-6H-thieno[3,2-f][1,2,4]triazolo[4,3-a][1,4]diazepin-6-yl)acetyl)-2,6-diazaspiro[3.3]heptane-2-carbonyl)benzoate trifluoroacetic acid]",+++ (the degrading capacity was reduced by 70% or more)
17,"COC(=O)c1ccc(N2CC3CN(C(=O)C[C@@H]4N=C(c5ccc(Cl)cc5)c5c(sc(C)c5C)-n5c(C)nnc54)CC3C2)cc1C#CCN (stereo partly drawn) [5-44′, methyl 2-(3-aminoprop-1-yn-1-yl)-4-(5-(2-((S)-4-(4-chlorophenyl)-2,3,9-trimethyl-6H-thieno[3,2-f][1,2,4]triazolo[4,3-a][1,4]diazepin-6-yl)acetyl)hexahydropyrrolo[3,4-c]pyrrol-2(1H)-yl)benzoate trifluoroacetic acid]",++ (the degrading capacity was reduced by 40% to 70% (exclusive of 70))
18,"Cc1sc2c(c1C)C(c1ccc(Cl)cc1)=N[C@@H](CC(=O)NCCCC(=O)Nc1ccc(C(=O)O)c(C#CCN)c1)c1nnc(C)n1-2.Cl [5-53′, (S)-2-(3-aminoprop-1-yn-1-yl)-4-(4-(2-(4-(4-chlorophenyl)-2,3,9-trimethyl-6H-thieno[3,2-f][1,2,4]triazolo[4,3-a][1,4]diazepin-6-yl)acetamido)butanamido)benzoic acid hydrochloride]",++ (the degrading capacity was reduced by 40% to 70% (exclusive of 70))
